Data from patent US20260159815A1, “METHODS OF CULTURING CARDIAC CELLS AND USE OF CELLS FOR DISEASE MODELING” (Technion Research & Development Foundation Limited, priority 2023, published 2026).

System: iPSC-derived cardiomyocytes
Experiment: RT-qPCR of selected sarcomere genes (TNNI1, TNNI3)
Assay type: cell-based, human
Settings: Torin1 10 nM and 25 nM, maturation media groups (3 mM glucose)
Procedure: Gene expression (RT-qPCR): RNA was extracted from cells using […], then reverse transcribed to cDNA with the Iscript™ cDNA Synthesis Kit (Bio-Rad, US). The quantitative polymerase chain reaction was performed using the Lightcycler® 480 SYBR Green I Master (syber green) (Roche, Switzerland).
Cardiomyocyte maturation: hiPSCs were differentiated into cardiomyocytes as follows. On day 0, the hiPSC medium was replaced with CDM3 media supplemented with 6 μM CHIR99021 (R&D Systems, US) to induce differentiation toward a mesodermal fate. After 48 hours the same medium was use, supplemented with 2 μM of Wnt-C59 (Selleck Chemicals, US). After 48 hours, the medium was replaced with RPMI-B27-insulin (Thermo Fisher Scientific, US). On day 10, maturation process was started with the replacement of the medium with maturation media. This process continued for 14 days during which Torin1 was added only in the first 7 days. At the end of the process, several criteria were tested to characterize the maturation of the CMs and the other supporting cells. […]

Which “TNNI3 mRNA expression” value does the source give for `CCC(=O)N1CCN(c2ccc(-n3c(=O)ccc4cnc5ccc(-c6cnc7ccccc7c6)cc5c43)cc2C(F)(F)F)CC1` [Torin1] here?
Its value is “trended toward increased expression of TNNI3 mRNA expression in a dose-dependent manner”.
